From patent US9000176B2, “Pyrazole derivatives, preparation method thereof, and composition for prevention and treatment of osteoporosis containing same” (Ewha University—Industry Collaboration Foundation, priority 2009, dated 2015)

System: generation of reactive oxygen species in the murine kidney membrane
Assay: Lucigenin-based assay of reactive oxygen species generation in isolated kidney membrane
Assay type: biochemical, rat (Rattus norvegicus)
Settings: 37° C. for 10 minutes, luminescence, compound 40, 10, 2.5, 0.625, 0 μM, read-out: EC50 (inhibition of generation of reactive oxygen species)
Protocol: A kidney was isolated from a rat (Rattus norvegicus) and washed with phosphate buffered saline (PBS). The tissue was soaked in 20 mL of PBS buffer containing a protease inhibitor (Aprotinin 1 μg/mL-USB 11388, Leupeptin 1 μg/mL-USB-18413), finely disrupted using a mixer, and then transferred to a 50 mL conical tube (SPL 50050), followed by centrifugation at 10000 g for 10 minutes (MF-600 plus, Hanil) to sediment the undisrupted tissue. The supernatant was separated and collected in a fresh tube. The tube was placed in ice and subjected to sonication about 4 times each cycle for 30 seconds until the supernatant became clear (Branson Digital Sonifier, Model CE Converter 102C). The supernatant was transferred to a high-speed centrifugation tube (Beckman 331372) and then centrifuged at 100000 g for 1 hour (Optima™ L-90 K Preparative Ultracentrifuge, SW41Ti rotor, Beckman). After the supernatant was discarded, the remaining pellet was washed once with cold PBS and dissolved in 500 μL of cold PBS containing a protease inhibitor to obtain a murine kidney membrane.
Reactive oxygen species generated in the thus-obtained kidney membrane was analyzed by a lucigenin-based assay.
Specifically, each of the compounds synthesized in Examples of the present invention (40 μM, 10 μM, 2.5 μM, 0.625 μM, and 0 μM) was placed in a luminescence assay microplate, and the isolated kidney membrane and lucigenin were sequentially added thereto, followed by incubation at 37° C. for 10 minutes. Then, the intensity of luminescence was measured in a luminometer (MicroLumatPlus LB96V Microplate Luminometer, Berthold) to assay the generation of reactive oxygen species in the murine kidney membrane, followed by calculating an EC50 value of the inventive compounds.

| SMILES | EC50 |
| --- | --- |
| Oc1cc(-c2ccc(Br)cc2)nn1-c1ccccn1 [Compound 15, 3-(4-bromophenyl)-1-(pyridin-2-yl)-1H-pyrazol-5-ol] | 1200 nM |
| Oc1cc(-c2ccccc2I)nn1-c1ccccn1 [Compound 16, 3-(2-iodophenyl)-1-(pyridin-2-yl)-1H-pyrazol-5-ol] | 2500 nM |
| Oc1cc(-c2cccc(I)c2)nn1-c1ccccn1 [Compound 17, 3-(3-iodophenyl)-1-(pyridin-2-yl)-1H-pyrazol-5-ol] | 700 nM |
| Oc1cc(-c2ccc(I)cc2)nn1-c1ccccn1 [Compound 18, 3-(4-iodophenyl)-1-(pyridin-2-yl)-1H-pyrazol-5-ol] | 450 nM |
| Oc1cc(-c2ccc(I)cc2)nn1-c1ncccn1 [Compound 19, 3-(4-iodophenyl)-1-(pyrimidin-2-yl)-1H-pyrazol-5-ol] | 800 nM |
| CC(C)[Si](Oc1cc(-c2ccc(I)cc2)nn1-c1ccccn1)(C(C)C)C(C)C [Compound 20, 2-(3-(4-iodophenyl)-5-(triisoropylsilyloxy)-1H-pyrazol-1-yl)pyridine] | 1500 nM |
| CC(=O)Oc1cc(-c2ccc(Br)cc2)nn1-c1ccccn1 [Compound 26, 3-(4-bromophenyl)-1-(pyridin-2-yl)-1H-pyrazol-5-yl acetate] | 1300 nM |
| CC(C)(C)OC(=O)Oc1cc(-c2ccc(-c3ccccc3)cc2)nn1-c1ncccn1 [Compound 48, 3-(biphenyl-4-yl)-1-(pyrimidin-2-yl)-1H-pyrazol-5-yl tert-butyl carbonate] | 1200 nM |
| CC(C)[Si](Oc1cc(-c2ccc(-c3ccc(Br)cc3)cc2)nn1-c1ccccn1)(C(C)C)C(C)C [Compound 51, 2-(3-(4′-bromobiphenyl-4-yl)-5-(triisopropylsilyloxy)-1H-pyrazol-1-yl)pyridine] | 400 nM |
| c1ccc(B(Oc2cc(-c3ccc(-c4ccccc4)cc3)nn2-c2ccccn2)c2ccccc2)cc1 [Compound 52, 2-(3-(biphenyl-4-yl)-5-(diphenylboryloxy)-1H-pyrazol-1-yl)pyridine] | 500 nM |
| Oc1cc(-c2cccc(-c3ccccc3)c2)nn1-c1ccccn1 [Compound 61] | 400 nM |

Further lines, results first:

| EC50 | SMILES |
| --- | --- |
| 400 nM | Oc1cc(-c2ccc(-c3ccccc3)cc2)nn1-c1ccccn1 [Compound 54, 3-(biphenyl-4-yl)-1-(pyridin-2-yl)-1H-pyrazol-5-ol] |
| 500 nM | Oc1cc(-c2ccc(-c3ccc4c(c3)OCO4)cc2)nn1-c1ccccn1 [Compound 55, 3-(4-(benzo[d][1,3]-dioxol-5-yl)phenyl)-1-(pyridin-2-yl)-1H-pyrazol-5-ol] |
| 1400 nM | Oc1cc(-c2ccccc2-c2ccc3c(c2)OCO3)nn1-c1ccccn1 [Compound 59, 3-(2-(benzo[d][1,3]dioxol-5-yl)phenyl)-1-(pyridin-2-yl)-1H-pyrazol-5-ol] |
| 625 nM | Oc1cc(-c2cccc(-c3ccccc3Oc3ccccc3)c2)nn1-c1ccccn1 [Compound 65, 3-(2′-phenoxybiphenyl-3-yl)-1-(pyridin-2-yl)-1H-pyrazol-5-ol] |
| 400 nM | Oc1cc(-c2cccc(-c3cccc(-c4ccccc4)c3)c2)nn1-c1ccccn1 [Compound 67, 3-(3′-phenylbiphenyl-3-yl)-1-(pyridin-2-yl)-1H-pyrazol-5-ol] |
| 2500 nM | Oc1cc(-c2ccc(-c3ccc(Br)cc3)cc2)nn1-c1ccccn1 [Compound 72, 3-(4′-bromobiphenyl-4-yl)-1-(pyridin-2-yl)-1H-pyrazol-5-ol] |
| 400 nM | Oc1cc(-c2ccc(-c3ccccc3Oc3ccccc3)cc2)nn1-c1ccccn1 [Compound 74, 3-(2′-phenoxybiphenyl-4-yl)-1-(pyridin-2-yl)-1H-pyrazol-5-ol] |
| 600 nM | Oc1cc(-c2ccc(-c3ccccc3)cc2)nn1-c1ncccn1 [Compound 75, 3-(biphenyl-4-yl)-1-(pyrimidin-2-yl)-1H-pyrazol-5-ol] |
| 10000 nM | CCCc1c(-c2ccccc2)nn(-c2ccccn2)c1O [Compound 78, 3-phenyl-4-propyl-1-(pyridin-2-yl)-1H-pyrazol-5-ol] |
| 3000 nM | Oc1c(Cc2ccccc2)c(-c2ccccc2)nn1-c1ccccn1 [Compound 79, 4-benzyl-3-phenyl-1-(pyridin-2-yl)-1H-pyrazol-5-ol] |
